Where “and” joins values, the source holds several entries; their conditions need not be identical. Identical values can stand only once.
Legend:
factor IX = assay: Plasma factor IX antigen ELISA, presurgical trial; type: in vivo, human; settings: mean ± SD
Procedure: (§1) Plasma samples collected with anticoagulant K3-EDTA were used for human IGF-1 and SHBG assays, and coagulation protein assays (factor VIII, factor IX, von Willebrand factor, and protein S)[23]. The human IGF-1 and SHBG assays were performed with Quantikine Enzyme-linked immunosorbent assay (ELISA) Kits (R&D Systems, Cat # DG100 for IGF-1, and Cat # DSHBGO for SHBG assay). The lower limit of detection was 56 pg/ml, and 5 pmol/L; % CV values were 4.3 and 5.6 for IGF-1, and SHBG assay, respectively. Factor VIII, and factor IX were determined with VisuLize™ antigen ELISA kits (Affinity Biologicals Inc.). von Willebrand factor was measured with immune-turbidimetric assay (Diagnostica Stago Inc. Cat #00518) by STAR analyzer, and total protein S was assayed with an ELISA kit (REAADSR Inc.)

maspin = assay: Maspin expression (H score) by immunohistochemistry, presurgical trial; type: in vivo, human; settings: mean ± SD
Procedure: (§2) Assessments similar to those performed at baseline were repeated on the day prior to, or on the morning of surgery. During surgery, breast adipose tissue from the surgical sample was snap frozen and stored at −80° C. for measurement of tamoxifen and metabolites. The samples were obtained from a location adjacent to the DCIS lesion to provide uniformity between participants undergoing breast conservation and mastectomy. The paraffin block of the core and excision samples were acquired by the recruiting institution and 10 sections from each specimen were submitted to the NU Pathology Core Facility. The sections were cut in batches (with pre- and post-treatment samples in the same batch), shipped cold, and processed for immunohistochemistry within four weeks.
(§3) Secondary endpoints were 1) to compare concentrations of tamoxifen and its metabolites [4-OHT, endoxifen, N-desmethyl tamoxifen (NDT)] in breast tissue, plasma and NAF obtained on the day of surgery; 2) to assess changes in known tamoxifenmodulated pathways in the breast (COX-2 and maspin protein expression, [19,20]) and plasma (SHBG, IGF-1 [14]). Side effect endpoints were 1) the incidence of hot flashes at baseline and before surgery; 2) changes in coagulation related proteins in women on the gel and the oral arms from baseline to immediately before surgery.
(§4) Immunohistochemical (IHC) assessment of these markers was performed on paraffin embedded sections of the core and excision specimens, using standard IHC techniques and MCF7, HCT116 and H292 cells as controls. For maspin we used primary mouse monoclonal antibody (Clone-G167-70,BD Pharmingen, San Jose, Calif.), dilution 1:200; for COX-2, primary mouse monoclonal antibody (Clone-CX-294, Dako, Denmark), dilution 1:100-; and for Ki67, primary mouse monoclonal antibody (Clone-MIB-1, Dako, Denmark), dilution 1:100-antigen. Dako Envision Plus system HRP labeled polymer for 20 min at 37° C. was used as the detection system. […] The Ki67 LI was assessed on an average of 300 DCIS cells at 40× magnification. […]

factor VIII = assay: Plasma factor VIII antigen ELISA, presurgical trial; type: in vivo, human; settings: mean ± SD
Procedure: as §1

COX-2 = COX-2 expression (H score) by immunohistochemistry, presurgical trial; type: in vivo, human; settings: mean ± SD
Procedure: as §2, §3, §4

[1] = Study 1: oral tamoxifen vs transdermal 4-OHT and endoxifen gel, mammary and plasma concentrations; settings: for concentration at 6 weeks: athymic nude (Hsd:RHFoxn1^rnu/rnu), rat, oral, 3 mg/kg/day
Procedure: (Z) tamoxifen was prepared as 3 mg/mL in sesame oil. For transdermal gel formulations, 4-OHT (E:Z=50:50) (1 mg/mL), (Z) endoxifen (1 mg/mL), and telapristone (1.5 mg/mL) were prepared in 60% (v/v) ethanol-phosphate buffer containing 0.5% (v/v) oleic acid [13] with 1.5% (w/v) Klucel hydroxypropyl cellulose.
Athymic nude rats (Hsd:RHFoxn1^rnu/rnu, Harlan Laboratories, Inc.) were provided with standard laboratory food and water ad libitum. […] In the gel groups, animals were anesthetized with isoflurane inhalation; the skin surface of axillary mammary glands was cleaned with alcohol swabs and air-dried; 0.1 mL drug gel was applied using a template with an exposed ellipse (π×R1×R2=π1 cm×0.6 cm) around the no. 2 nipple on each side and allowed to dry (total of 1, 0.5 mg/kg/day on each side); animals wore jackets fitted over the forelegs, to prevent loss of gel through grooming.
In both studies, rats were euthanized after 6 weeks of treatment for blood and tissue collections. The treated skin area was cleansed with alcohol prior to dissection. Blood samples were collected from the heart. We collected the whole mammary glands (1 axillary and 1 inguinal) per animal and measured their drug concentrations separately.
The concentrations of all the drugs used in rats and humans were determined by liquid chromatography-tandem mass spectroscopy (API 3000; AB SCIEX, Foster City, Calif., USA). […] The mobile phase was A: 0.1% formic acid in water (v/v) and B: 0.1% formic acid in acetonitrile (v/v). Details of sample processing and quantitation methods are described below. The lowest limits of quantification (LLOQ) were as follow: tamoxifen and N-desmethyl tamoxifen (NDT) (plasma 10 ng/mL; tissue 40 ng/g); 4-OHT and endoxifen (plasma 0.5 ng/mL; tissue 2 ng/g); telapristone and N-desmethyl telapristone (d-telapristone) (plasma 1 ng/mL; tissue 1.5 ng/g); and diclofenac (plasma 0.5 ng/mL; tissue 2 ng/g).
For preclinical studies, the summary statistics as medians and interquartile range (IQR) were reported by treatment group for each analyte obtained from plasma, axillary, and inguinal mammary glands. Concentration differences of each analyte between treatment groups and differences between mammary glands within each treatment group were assessed via the Wilcoxon rank-sum test, and the Wilcoxon signed rank-sum test, respectively.
(Z) tamoxifen and metabolites [(Z) NDT, (E) 4-OHT, and (Z) 4-OHT, (Z) endoxifen] were determined using LC-MS/MS (API 3000; AB SCIEX, Foster City, Calif.). A 100 μL aliquot of plasma was mixed with 200 μL of acetonitrile containing 1 ng each of the deuterated analogs of the analytes (TRC, Toronto, Canada). […]

[2] = Plasma, breast adipose tissue and NAF concentrations of tamoxifen and its metabolites (LC-MS/MS), presurgical trial; type: in vivo, human
Source text: All participants provided informed consent. Baseline assessments included a history and physical, explanation of gel application, completion of the Breast Cancer Prevention Trial Eight Symptom Scale (BESS) questionnaire, collection of a venous blood sample, and collection of nipple aspirate fluid (NAF) from NAF yielders. […] Treatment began within 5 days post-randomization and ended on the day prior to surgical resection. Participants were instructed to apply the gel to the entire skin envelope of each breast each morning, after a shower. Duration of therapy was 6-10 weeks. Compliance was assessed through participant diaries, counts of returned pills and of returned gel canisters. Participants who took at least 80% of the prescribed dose were considered compliant.
as §2
(Z)-tamoxifen, (Z)-NDT, (E) and (Z)-4-OHT, and (Z)-endoxifen were measured by liquid chromatography-tandem mass spectrometry with a turbo ion spray interface operating in positive mode (API 3000; AB SCIEX, Foster City, Calif.). […] For analysis of NAF, samples were collected in a capillary tube and diluted with 200 μL of phosphate buffered saline; 100 μL of the diluted NAF sample was used for analysis. Breast adipose tissue samples, 25 mg, were minced and treated with 125 μL of […] and extracted as described above.
Retention times for (Z)-tamoxifen, (Z)-NDT, (Z)-4-OHT, (E)-4-OHT and (Z)-endoxifen were 7.3, 6.8, 5.1, 4.7 and 4.5 min, respectively. […] In three participants, matched samples were not available: breast adipose tissue was not collected in two, and the plasma sample was missing in one.
Since the fraction of E and Z isoforms of 4-OHT was of particular interest, we used an additional validated method to study plasma concentrations of these metabolites in a different laboratory (Eurofins Medinet, Chantilly, Va.): Plasma from blood samples collected in lithium-heparin tubes was frozen at −20° C., shipped in batches on dry ice to them Eurofins Medinet central laboratory; LC-MS/MS was used for the simultaneous determination of (E) 4-OHT and (Z) 4-OHT, with a lower limit of quantitation (LOQ) of 10 pg/mL and upper LOQ of 10,000 pg/mL. Eurofins Medinet developed and validated them method for BHR Pharma, in accordance with the FDA Guidance on Bioanalytical Method Validation.

MCF7 xenograft = settings: simulation using human PK; cited from earlier work
[3] = 28 days; cited from earlier work
[4] = at surgery after 6-10 weeks, mean ± SD, LLOQ 3 ng/g

In the case of CC/C(=C(\c1ccccc1)c1ccc(OCCN(C)C)cc1)c1ccccc1 [Tamoxifen, (Z)-tamoxifen], the “% Factor IX post-treatment” value (factor IX; plasma after 6-10 weeks) is reported as 87.0 ± 12.2%, the “% Factor IX baseline” value (factor IX; plasma before treatment) is reported as 86.6 ± 8.8% and the “% Factor IX Changes from baseline” value (factor IX; plasma) is reported as 0.4 ± 10.2%. For the same compound, the Maspin post-treatment (maspin; DCIS lesions after 6-10 weeks) was 142 ± 69 H-score, the Maspin baseline (maspin; DCIS lesions before treatment) was 107 ± 56 H-score and the “Maspin Changes from baseline” value (maspin; DCIS lesions, 6-10 weeks) was 35 ± 71 H-score. For the same compound, the “% Factor VIII post-treatment” value (factor VIII; plasma after 6-10 weeks) was 168.7 ± 51.6%, the “% Factor VIII baseline” value (factor VIII; plasma before treatment) was 157.1 ± 47.5% and the “% Factor VIII Changes from baseline” value (factor VIII; plasma) was 11.6 ± 17.3%. The COX-2 post-treatment (COX-2; DCIS lesions after 6-10 weeks) was 78.9 ± 63.5 H-score, the COX-2 baseline (COX-2; DCIS lesions before treatment) was 67.2 ± 72.4 H-score and the “COX-2 Changes from baseline” value (COX-2; DCIS lesions, 6-10 weeks) was 11.7 ± 109.8 H-score. For the same compound, the concentration at 6 weeks ([1]; axillary mammary gland) was 44.2 ng/g, the concentration at 6 weeks ([1]; inguinal mammary gland) was 69.6 ng/g and the concentration at 6 weeks ([1]; plasma) was 8 ng/mL. The “deaths, weight loss, general health, skin irritation” value ([1]; rats, end of 6 week experiment) was “no deaths, no weight loss, and no skin irritation”, the “(E) 4-OHT concentration, plasma” value ([2]; after 6-10 weeks, mean ± SD, LLOQ 1 ng/mL) was “BQL” and the “(Z) Tamoxifen concentration, plasma” value ([2]; after 6-10 weeks, mean ± SD, LLOQ 20 ng/mL) was 90 ± 45 ng/mL. For the same compound, the “(E) 4-OHT concentration, breast adipose tissue” value [2, 4] was “BQL”, the “(Z) Tamoxifen concentration, breast adipose tissue” value [2, 4] was 2959 ± 1035 ng/g and the “plasma concentration of tamoxifen, individual participants” value ([2]; participants A, B and one with undetectable NAF levels, listed as oral-T) was 54 ng/mL and 94.3 ng/mL and 160 ng/mL. For the same compound, the “NAF concentration of endoxifen” value ([2]; post-treatment nipple aspirate fluid) was “undetectable”, the “NAF concentration of tamoxifen, individual participants” value ([2]; post-treatment nipple aspirate fluid, participants A, B, listed as oral-T) was 320 ng/mL and 182 ng/mL and the “NAF concentration of 4-OHT ((Z) 4-OHT), individual participants” value ([2]; post-treatment nipple aspirate fluid, participants C, D) was “undetectable”. The “TGI at day 21, 20 mg/day oral” value (MCF7 xenograft) was 63%, the “ENX concentration in serum, oral TAM 1 mg daily” value [3] was 3 ng/mL and the “ENX concentration in serum, oral TAM 5 mg daily” value [3] was 9 ng/mL. For the same compound, the “ENX concentration in serum, oral TAM 20 mg daily” value [3] was 38 ng/mL, the “ENX concentration in tumor tissue, oral TAM 1 mg daily” value [3] was 31 ng/g and the “ENX concentration in tumor tissue, oral TAM 5 mg daily” value [3] was 80 ng/g. The “ENX concentration in tumor tissue, oral TAM 20 mg daily” value [3] was 340 ng/g.
